According to ChEMBL document CHEMBL1130408, “Repromicin derivatives with potent antibacterial activity against Pasteurella multocida” (1997):
Values after ≈ are worked out from the molar mass of the structure shown.

Columns and labels:
Type in all cases: functional
[1] = test system: Pasteurella multocida; experiment: Minimum inhibitory concentration required to inhibit Pasteurella multocida 59A006 in vitro
[2] = species on record: Mus musculus; experiment: Protected dose at which the test compound protects 50% of challenged mice from death owing to the Pasteurella multocida infection; settings: read-out: PD50
[3] = species on record: Mus musculus; experiment: Protected dose which protects 50% of challenged mice from death owing to the Pasteurella multocida (59A006) infection; settings: read-out: PD50

Structure (SMILES) | MIC [1] | ED50 [2] | ED50 [3]
CC[C@H]1OC(=O)[C@H](C)[C@@H](O[C@H]2C[C@@](C)(OC)[C@@H](O)[C@H](C)O2)[C@H](C)[C@@H](O[C@@H]2O[C@H](C)C[C@H](N(C)C)[C@H]2O)[C@](C)(O)C[C@@H](C)CN(C)[C@H](C)[C@@H](O)[C@]1(C)O [AZITHROMYCIN] | 0.05 µg/mL (≈ 0.0668 µM) | 16 mg/kg | –
CC[C@H]1OC(=O)C[C@@H](O)[C@H](C)[C@@H](O[C@@H]2O[C@H](C)[C@@H](O)[C@H](N(C)C)[C@H]2O)[C@@H](CCN2C[C@H](C)C[C@H](C)C2)C[C@@H](C)C(=O)/C=C/C(C)=C/[C@@H]1CO[C@@H]1O[C@H](C)[C@@H](O)[C@@H](OC)[C@H]1OC [TILMICOSIN] | 1.56 µg/mL (≈ 1.79 µM) | 99 mg/kg | –
CC[C@H]1OC(=O)CC(O)[C@H](C)[C@@H](O[C@@H]2O[C@H](C)C[C@H](N(C)C)[C@H]2O)[C@@H](CCN(CCCN(C)C)C(=O)CN)C[C@@H](C)C(=O)/C=C/C(C)=C/[C@@H]1C (stereo not given in full) | 0.78 µg/mL (≈ 1.1 µM) | – | 4 mg/kg
CC[C@H]1OC(=O)CC(O)[C@H](C)[C@@H](O[C@@H]2O[C@H](C)C[C@H](N(C)C)[C@H]2O)[C@@H](CCNC(C)(C)C)C[C@@H](C)C(=O)/C=C/C(C)=C/[C@@H]1C (stereo not given in full) | 0.39 µg/mL (≈ 0.626 µM) | – | 150 mg/kg
CC[C@H]1OC(=O)CC(O)[C@H](C)[C@@H](O[C@@H]2O[C@H](C)C[C@H](N(C)C)[C@H]2O)[C@@H](CCNCCO)C[C@@H](C)C(=O)/C=C/C(C)=C/[C@@H]1C (stereo not given in full) | 0.2 µg/mL (≈ 0.327 µM) | – | 10 mg/kg
CC[C@H]1OC(=O)CC(O)[C@H](C)[C@@H](O[C@@H]2O[C@H](C)C[C@H](N(C)C)[C@H]2O)[C@@H](CCN2CC(O)C2)C[C@@H](C)C(=O)/C=C/C(C)=C/[C@@H]1C (stereo not given in full) | 0.2 µg/mL (≈ 0.321 µM) | – | 19 mg/kg
CC[C@H]1OC(=O)CC(O)[C@H](C)[C@@H](O[C@@H]2O[C@H](C)C[C@H](N(C)C)[C@H]2O)[C@@H](CCNC(CO)CO)C[C@@H](C)C(=O)/C=C/C(C)=C/[C@@H]1C (stereo not given in full) | 0.39 µg/mL (≈ 0.609 µM) | – | 31 mg/kg
CC[C@H]1OC(=O)C[C@@H](O)[C@H](C)[C@@H](O[C@@H]2O[C@H](C)[C@@H](O[C@H]3C[C@@](C)(O)[C@@H](O)[C@H](C)O3)[C@H](N(C)C)[C@H]2O)[C@@H](CC=O)C[C@@H](C)C(=O)/C=C/C(C)=C/[C@@H]1CO[C@@H]1O[C@H](C)[C@@H](O)[C@@H](OC)[C@H]1OC [TYLOSIN] | 25 µg/mL (≈ 27.3 µM) | – | 86 mg/kg
CC[C@H]1OC(=O)C[C@@H](O)[C@H](C)[C@@H](O[C@@H]2O[C@H](C)[C@@H](O)[C@@H](N(C)C)[C@H]2O)[C@@H](CC=O)C[C@@H](C)C(=O)/C=C/C(C)=C/[C@@H]1CO[C@@H]1O[C@H](C)[C@@H](O)[C@@H](OC)[C@H]1OC | 3.13 µg/mL (≈ 4.05 µM) | 66 mg/kg | –
CC[C@H]1OC(=O)CC(O)[C@H](C)[C@@H](O[C@@H]2O[C@H](C)C[C@H](N(C)C)[C@H]2O)[C@@H](CCN2CCCC2)C[C@@H](C)C(=O)/C=C/C(C)=C/[C@@H]1C (stereo not given in full) | 0.39 µg/mL (≈ 0.628 µM) | – | 128 mg/kg
